Reference: patent US6413967B1, “Inhibition of novel calcium entry pathway in electrically non-excitable cells acting as an anti-proliferative therapy” (The University of Virginia Patents Foundation, priority 1995, dated 2002)
Values belong to the compound of their own block, whether it stands above or below them.

Legend:
[1] = system: VG Ca^2+ current in Jurkat cells; test: perforated patch clamp, voltage gated (VG) Ca2+ current; format: cell-based, human; conditions: for effect on the VG Ca^2+ current: amiloride 100 μM, MnCl2 300 μM, NiCl2 1 mM, W-7 alone (unstimulated current)
Procedure: (§1) All recordings were performed using the perforated patch method (Horn et al, J. Gen. Physiol. (1988) 92:145) of the gigaseal patch clamp technique (Hammil et al, Pflugers Arch (1981) 391:85) with microelectrodes of 5-10 megohm series resistance. In all solutions for voltage clamp, K^+ was replaced with Cs^+ to block outward K^+ currents (Fox et al, J. Physiol. (Lond.) (1987) 392:149). The bath solution contained (in mM): NaCl, 155; CsCl, 4.5; CaCl2, 2; MgCl2, 1; D-glucose, 5; HEPES, 10 (pH 7.4 with NaOH). The pipette solution contained (in mM): CsCl, 55; Cesium methanesulfonate, 70; CaCl2, 1; MgCl2, 7; HEPES, 10 (pH 7.3 with NaOH). Nystatin was made as a stock solution of 6 mg/100 μl DMSO, and 2 μl of the stock was added to 1 ml of the pipette solution for use. Both pipette and bath solutions were 290-300 mOsm. Experiments were performed on cells at room temperature using the Axopatch-1D patch clamp (Axon Instruments, Foster City, Calif.) after correction of junction potentials and leak subtraction. Records were low-pass filtered at 500 Hz, and the data were collected, stored and analyzed using the pClamp software program (Axon Instruments). For the non-voltage gated current traces, data is presented either as the tracing from a chart recorder or from the digital data in which the current was measured at 5 second intervals and plotted as individual points.

[2] = system: NVG current in Jurkat cells; test: perforated patch clamp, non-voltage gated (NVG) current; format: cell-based, human; conditions: for effect on the thapsigargin-induced NVG current: membrane potential −60 mV, 300 nM thapsigargin, amiloride 100 μM, MnCl2 300 μM, NiCl2 1 mM, W-7 30 μM, NDGA 10 μM
Procedure: as §1

[3] = system: Ca^2+ entry pathway in Jurkat cells; test: thapsigargin-stimulated Ca2+ entry measured with Ca2+-sensitive dyes (indo-1, fluo-3); format: cell-based, human; conditions: 300 nM thapsigargin, amiloride 100 μM (fluo-3), Ni^2+ 1 mM, NDGA 10 μM (indo-1)
Procedure: Lymphocytes were suspended in culture medium at 37° C. for 1 h in the presence of 1 μM of the Ca^2+ indicator dye indo-1 /AM. Cells were washed twice in buffer A (140 mM NaCl, 3 mM KCl, 1 mM CaCl2, 1 mM MgCl2, 0.1% D-glucose, 1% FBS, 10 mM HEPES, pH 7.4) and were suspended at a final concentration of 1×10^6 cells/ml in buffer A. The excitation wavelength was 340 nm and emission was monitored at 398 nm in an SLM 8000 spectrofluorometer (SLM/Aminco, Urbana, Ill.), with the temperature maintained at 37° C. Data are plotted as relative fluorescence intensity at 398 nm as a measure of [Ca^2+]i. For FIG. 7, indo-1 emission was monitored at 398 nm and 480 nm and [Ca^2+]i was determined as described previously (Gray et al, J. Immunol (1987) 138:63; Haverstick et al, Mol. Biol. Cell (1993) 4:173).
Jurkat cells were loaded with indo-1/AM as described above. The excitation wavelength was 340 nm and emission was measured at 441 nm. The fluorescence of indo-1 at 441 nm is insensitive to changes in [Ca^2+]i (Sage et al, Biochem. J. (1989) 258:923) and is plotted as relative fluorescence intensity.
Because amiloride interferes with the fluorescence of indo-1 (Wacholtz et al, J. Immunol. (1992) 149:1912), fluo-3 was used to monitor [Ca^2+]i in the presence of amiloride. Jurkat cells were suspended in culture medium at 37° C. for 1 h in the presence of 1 μM fluo-3/AM and 1 mM probenecid to decrease dye leakage (DiVirgilio et al, Methods Cell Biol. (1989) 31:453). After two washes in buffer A, cells were suspended at a concentration of 1×10^6 cells/ml in buffer A with 1 mM probenecid and were maintained in a cuvette at 37° C. The excitation wavelength was 506 nm and the emission was monitored at 526 nm. Data are presented sa relative fluorescence intensity at 526 nm.

[4] = system: Ca^2+ entry pathway in Jurkat cells; conditions: previously demonstrated (Haverstick et al 1993); cited from earlier work
[5] = system: [Ca^2+]i in Jurkat T cells; test: receptor-stimulated Ca2+ influx in Jurkat T cells (anti-CD3 mAb OKT3); format: cell-based, human; conditions: for IC50: Homo sapiens, Jurkat, maximal [Ca^2+]i after anti-CD3 mAb OKT3, drug 1 min prior; for T cell [Ca^2+]i: effect the same post- and pre- T cell receptor stimulation
Procedure: Initially, all drugs are screened using Jurkat T cells incubated with indo-1/AM as outlined below. In the event that there is an effect of the drug on the maximum [Ca^2+]i reached following treatment of the cells with the anti-CD3 mAb […], the drug is evaluated for any effects on the spectral characteristics of indo-1 as outlined in Haverstick and Gray, Mol. Biol. Cell (1993) 4:173. If there is an effect of the drug on the spectral characteristics of indo-1 , the drug is further examined for spectral effects on the combination of fura-red and fluo-3. If there is no effect of the drug on the fura-red/fluo-3 combination, the drug is examined for effects on the maximum [Ca^2+]i reached following OKT3 treatment of cells incubated with 5 μM fura-red and […] as outlined below.
Jurkat cells are incubated in RPMI-1640 plus 5% fbs in the presence of the acetoxymethyl ester of either indo-1 (1 μM) or the combination of fura-red (5 μM) with fluo-3 (1 μM) for one hour at 37° C. Cells are washed three times in buffer A [[…] 4-(2-hydroxyethyl)-1-piperazine ethanesulfonic acid (HEPES), pH 7.4, 3 MM KCl, 1 mM MgCl2, 1 mM CaCl2, 140 mM NaCl, 0.1% glucose] containing 1% fbs and suspended to a final concentration of 1×10^6/ml. Cells are then placed in the 37° C. jacketed cell holder of the SLM 8000C. Antigen receptor engagement is mimicked by the addition of the anti-CD3 monoclonal antibody OKT3 (Gray et al, J. Exp. Med. (1988) 167:1963; Gray et al, J. Immunol. 142:1631). The effect of drug added prior to receptor stimulation or at the plateau phase of Ca^2+ entry is determined as follows:
Prior drug: 10 or 30 μM drug @ 30 seconds, 1 μg/ml OKT3 at 90 seconds
Post drug: 1 μg/ml OKT3 at 30 second, 10 or 30 μM drug @ 120 seconds

Jurkat T cells = test: Jurkat cell proliferation, tetrazolium dye; format: cell-based, human; conditions: for IC50: Homo sapiens, Jurkat, incubation 44 to 48 h, read-out: JURKAT prolif IC50; for T cell PROLIF: 48 hours
Procedure: (§2) The effect of various drugs on the proliferation of Jurkat T cells, MDA-468 human breast cancer cells and PC3 human prostate cancer cells was determined by incubating the cells with the indicated concentrations of drug for 48 hours. The number of viable cells remaining at the end of the incubation period was evaluated using the procedure outlined in Example 4.
(§3) Cells are plated in triplicate in a 96-well flat-bottomed plate (Jurkat: 5e4 cells/well in RPMI-1640 plus 5% fbs; MDA468: 2.5e4 per well in DMEM plus 5% fbs and 11 μg/ml insulin) in the absence (control) or presence of drug at 3, 10, 30, and 100 μM. An additional control of 100 μM drug in RPMI-1640 plus 5% fbs or DMEM plus 5% fbs and 11 μg/Ml insulin with no cells is included with each run to control for possible drug interactions with the dye. The plate is then placed in a 5% CO2 37° C. incubator for 44 to 48 hours. 20 μl of dye solution containing a tetrazolium dye (3-(4,5-dimethylthiazol-2-yl)-5-(3-carboxymethoxyphenyl)-2-(4-sulfophenyl)-2H-tetrazolium, Owen's reagent) plus coupling reagent (phenazine methosulfate) is added to each well, the plate is returned to the incubator, and the absorbance at 490 nm is read using an ELISA plate reader 3 to 4 h (Jurkat cells) or 2 to 3 h (MDA-468 cells) later. All data are presented as percent of control (no drug addition). With this protocol, it is possible to determine the effect of 5 drugs at 4 concentrations in a single 96-well plate as outlined below: […]

[6] = system: MDA-468 human breast cancer cells; test: MDA-468 cell proliferation, tetrazolium dye; format: cell-based; parameters: key to MDA PROLIF: NE: no effect; ND: not determined; conditions: for IC50: Homo sapiens, incubation 44 to 48 h, read-out: MDA-468 prolif IC50; for MDA PROLIF: human breast cancer cell proliferation, 48 hours
Procedure: as §2, §3

[7] = system: [Ca^2+]i in MDA-468 cells; test: EGF receptor-stimulated Ca2+ influx in MDA-468 cells; format: cell-based; conditions: Homo sapiens; maximal [Ca^2+]i, Ca^2+ entry triggered by 50 ng/ml EGF
[8] = system: [Ca^2+]i in MDA-468 cells; test: as above; format: cell-based, human; parameters: key: NE: no effect; ND: not determined; conditions: effect the same post- and pre- EGF receptor stimulation
Procedure: MDA468 cells are incubated with either indo-1 or the combination of fura-red/fluo-3 for 1 hour while still adherent in the maintenance flask in DMEM plus 5% fbs and 1 μg/ml insulin. Cells are removed by gentle scraping and washed three times in buffer A containing 1% charcoal stripped fbs (Nelson et al, Br. J. Cancer (1991) 63:933). The cells are then suspended to a final concentration of 1e6/ml and used as above in the SLM. For the human breast cancer cells, Ca^2+ entry is stimulated by the addition of 25 ng/ml EGF, rather than the antibody used above.

[9] = system: human prostate cancer cell line PC3; test: PC3 cell proliferation, tetrazolium dye; format: cell-based; conditions: PC-3, 5×10^4 PC3 cells, 48 hours

Structure (SMILES): [Cl][Mn][Cl] [MnCl2]
- increase of the VG Ca^2+ current ([1]; 0.3 mM Mn^2+ in medium containing 2 mM Ca^2+): about 10%
- effect on the VG Ca^2+ current [1]: not blocked
- effect on the thapsigargin-induced NVG current [2]: reversibly blocked

Structure (SMILES): [Cl][Ni][Cl] [Ni^2+, NiCl2]
- effect on thapsigargin-stimulated Ca^2+ entry [3]: blocked Ca^2+ entry
- effect on the VG Ca^2+ current [1]: eliminated the VG Ca^2+ current
- effect on the thapsigargin-induced NVG current [2]: blocked

Structure (SMILES): NCCCCCCNS(=O)(=O)c1cccc2c(Cl)cccc12 [W-7, N-(6-aminohexyl)-5-chloro-1-naphthalenesulfonamide]
- effect on the VG Ca^2+ current [1]: not affected
- effect on thapsigargin-mediated augmentation of the VG Ca^2+ current ([1]; drug added before 300 nM thapsigargin, W-7 30 μM): blocked the augmentation
- effect on the thapsigargin-induced NVG current [2]: not affected
- effect on Ca^2+ influx induced by thapsigargin, by Ca^2+-sensitive dyes [4]: eliminates

Structure (SMILES): N=C(N)NC(=O)c1nc(Cl)c(N)nc1N [amiloride]
- effect on thapsigargin-stimulated Ca^2+ entry [3]: no effect
- effect on the VG Ca^2+ current [1]: not blocked
- effect on the thapsigargin-induced NVG current [2]: virtually eliminated
- effect on the thapsigargin-induced NVG current ([2]; listed as Amiloride): completely inhibited

- IC50 [5]: 25 µM
- IC50 (Jurkat T cells): 90 µM
- IC50 [6]: 20 µM
- IC50 [7]: 5 µM
Structure (SMILES): CN(C)CCCN1c2ccccc2Sc2ccc(Cl)cc21 [chloropromazine, 2-chloro-10-[3-dimethylaminopropyl]-phenothiazine]

Structure (SMILES): CC(NCCC(c1ccccc1)c1ccccc1)c1ccccc1 (stereo not drawn) [fendiline]
- T cell [Ca^2+]i ([5]; 10 or 30 μM drug): ↓
- T cell PROLIF (Jurkat T cells): ↓
- MDA [CA^2+]i [8]: ↑
- MDA PROLIF [6]: ↓

Structure (SMILES): Fc1ccc(C(c2ccc(F)cc2)N2CCN(C/C=C/c3ccccc3)CC2)cc1 [flunarizine]
- T cell [Ca^2+]i ([5]; 10 or 30 μM drug): ↓
- T cell PROLIF (Jurkat T cells): ↓
- MDA [CA^2+]i [8]: NE
- MDA PROLIF [6]: NE

Structure (SMILES): OCCN1CCN(CCCN2c3ccccc3Sc3ccc(C(F)(F)F)cc32)CC1 [fluphenazine]
- T cell [Ca^2+]i ([5]; 10 or 30 μM drug): ↓
- T cell PROLIF (Jurkat T cells): ↓
- MDA [CA^2+]i [8]: ↓
- MDA PROLIF [6]: ↓

Structure (SMILES): C1CCC(C(CC2CCCCN2)C2CCCCC2)CC1 (stereo not drawn) [perhexiline]
- T cell [Ca^2+]i (post) ([5]; drug added post T cell receptor stimulation, 10 or 30 μM drug): ↑ (post)
- T cell [Ca^2+]i (pre) ([5]; drug added pre T cell receptor stimulation, 10 or 30 μM drug): ↓(pre)
- T cell PROLIF (Jurkat T cells): ↓
- MDA [CA^2+]i [8]: ↑
- MDA PROLIF [6]: ↓

- IC50 [5]: 65 µM
- IC50 (Jurkat T cells): 3.5 µM
- IC50 [6]: 30 µM
- IC50 [9]: ~40 µM
- IC50 [7]: 105 µM
Structure (SMILES): CC(CN1c2ccccc2Sc2ccccc21)N(C)C (stereo not drawn) [promethazine, N,N,α-trimethyl-10H -phenothiazine-10-ethanamine]

Structure (SMILES): C/C=C(/C)C(=O)O[C@H]1C(C)=C2[C@H]([C@@H]1OC(=O)CCCCCCC)[C@@](C)(OC(C)=O)C[C@H](OC(=O)CCC)[C@@]1(O)[C@H]2OC(=O)[C@@]1(C)O [thapsigargin]
- mean maximum VG Ca^2+ current following addition ([1]; 300 nM thapsigargin, n=10, unstimulated 18.7 pA): 30.6 pA
- mean maximum magnitude of the induced NVG current ([2]; imposed membrane potential −60 mV, n=38): 3.6 pA
